Test results from US20090312288A1 (TAKEDA PHARMACEUTICAL COMPANY LIMITED, priority 2008, published 2009).

Target: Aurora B/INCENP (Homo sapiens, UniProt Q96GD4)
Experiment: Determination of inhibition of AIK: Aurora B/INCENP direct fluorescence polarization (IMAP) assay
Format: biochemical
Details: 10 uM ATP, 0.8 nM Aurora B/INCENP; values given as bins; read-out: IC50 of Exemplified Compounds Against AIK B

Aurora B/INCENP, sequence (Q96GD4 whole entry): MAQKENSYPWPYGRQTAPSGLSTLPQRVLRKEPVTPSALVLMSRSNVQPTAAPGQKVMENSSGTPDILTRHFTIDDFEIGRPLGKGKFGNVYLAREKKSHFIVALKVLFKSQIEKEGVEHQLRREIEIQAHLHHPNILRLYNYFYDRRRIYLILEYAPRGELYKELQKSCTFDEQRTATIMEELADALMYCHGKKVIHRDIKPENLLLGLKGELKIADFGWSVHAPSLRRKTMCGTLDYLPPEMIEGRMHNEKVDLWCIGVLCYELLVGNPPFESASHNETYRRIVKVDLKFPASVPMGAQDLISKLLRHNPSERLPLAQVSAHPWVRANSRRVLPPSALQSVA
Aurora B/INCENP, sequence (Q9NQS7 whole entry partner): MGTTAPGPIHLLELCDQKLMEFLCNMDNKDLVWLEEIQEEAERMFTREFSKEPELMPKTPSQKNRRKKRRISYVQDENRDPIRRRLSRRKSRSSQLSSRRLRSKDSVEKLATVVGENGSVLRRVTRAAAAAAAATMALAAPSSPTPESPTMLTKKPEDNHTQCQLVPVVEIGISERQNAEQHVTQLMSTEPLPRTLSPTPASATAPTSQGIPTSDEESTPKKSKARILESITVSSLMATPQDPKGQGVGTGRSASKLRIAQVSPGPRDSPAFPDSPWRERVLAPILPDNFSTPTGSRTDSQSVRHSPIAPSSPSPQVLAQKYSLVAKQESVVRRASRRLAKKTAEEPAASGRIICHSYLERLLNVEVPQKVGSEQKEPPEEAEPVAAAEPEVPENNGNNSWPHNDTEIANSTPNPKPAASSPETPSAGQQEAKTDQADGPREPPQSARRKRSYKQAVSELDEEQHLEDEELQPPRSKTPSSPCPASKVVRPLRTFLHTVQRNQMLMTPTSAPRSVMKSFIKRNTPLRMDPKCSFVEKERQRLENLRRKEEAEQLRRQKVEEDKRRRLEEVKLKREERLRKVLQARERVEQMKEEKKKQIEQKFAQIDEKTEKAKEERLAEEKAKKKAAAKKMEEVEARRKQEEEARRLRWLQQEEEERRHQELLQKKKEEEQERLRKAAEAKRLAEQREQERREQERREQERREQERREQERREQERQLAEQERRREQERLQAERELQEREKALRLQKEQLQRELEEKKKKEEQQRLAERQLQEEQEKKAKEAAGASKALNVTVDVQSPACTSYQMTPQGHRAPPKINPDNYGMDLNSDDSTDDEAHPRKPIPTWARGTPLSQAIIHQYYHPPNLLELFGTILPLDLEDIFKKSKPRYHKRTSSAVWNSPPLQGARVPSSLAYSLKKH

IC50 [nM] | Structure (SMILES)
< 4 | Cc1cnc2[nH]c3c(OC[C@@H]4CNCCO4)ccc(-c4cccc(S(=O)(=O)C5CC5)c4)c3c2c1 [Compound 358, (S)-2-((5-(3-(cyclopropylsulfonyl)phenyl)-3-methyl-9H-pyrido[2,3-b]indol-8-yloxy)methyl)morpholine]
< 4 | Cc1cnc2[nH]c3c(OC[C@H]4CNCCO4)ccc(-c4cccc(S(=O)(=O)C5CC5)c4)c3c2c1 [Compound 359, (R)-2-((5-(3-(cyclopropylsulfonyl)phenyl)-3-methyl-9H-pyrido[2,3-b]indol-8-yloxy)methyl)morpholine]
4 to 5.5 | Cc1cnc2[nH]c3c(OC[C@@H]4CN(CCO)CCO4)ccc(-c4cccc(S(=O)(=O)C5CC5)c4)c3c2c1 [Compound 363, (S)-2-(2-((5-(3-(cyclopropylsulfonyl)phenyl)-3-methyl-9H-pyrido[2,3-b]indol-8-yloxy)methyl)morpholino)ethanol]
4 to 5.5 | Cc1cnc2[nH]c3c(OC[C@@H]4CN(C)CCO4)ccc(-c4cccc(S(=O)(=O)C5CC5)c4)c3c2c1 [Compound 370, (S)-2-((5-(3-(cyclopropylsulfonyl)phenyl)-3-methyl-9H-pyrido[2,3-b]indol-8-yloxy)methyl)-4-methylmorpholine]
< 4 | Cc1cnc2[nH]c3c(OC[C@H]4CN(C)CCO4)ccc(-c4cccc(S(=O)(=O)C5CC5)c4)c3c2c1 [Compound 371, (R)-2-((5-(3-(cyclopropylsulfonyl)phenyl)-3-methyl-9H-pyrido[2,3-b]indol-8-yloxy)methyl)-4-methylmorpholine]
4 to 5.5 | Cc1cnc2[nH]c3c(OC[C@@H]4CN(CCOP(=O)(O)O)CCO4)ccc(-c4cccc(S(=O)(=O)C5CC5)c4)c3c2c1 [Compound 373, (S)-2-(2-((5-(3-(cyclopropylsulfonyl)phenyl)-3-methyl-9H-pyrido[2,3-b]indol-8-yloxy)methyl)morpholino)ethyl dihydrogen phosphate]
< 4 | Cc1cnc2[nH]c3c(OC[C@H]4CN(CCOP(=O)(O)O)CCO4)ccc(-c4cccc(S(=O)(=O)C5CC5)c4)c3c2c1 [Compound 375, (R)-2-(2-((5-(3-(cyclopropylsulfonyl)phenyl)-3-methyl-9H-pyrido[2,3-b]indol-8-yloxy)methyl)morpholino)ethyl dihydrogen phosphate]
4 to 5.5 | Cc1cnc2[nH]c3c(OC[C@H](O)CN4CCOCC4)ccc(-c4cccc(S(=O)(=O)C5CC5)c4)c3c2c1 [Compound 380, (R)-1-(5-(3-(cyclopropylsulfonyl)phenyl)-3-methyl-9H-pyrido[2,3-b]indol-8-yloxy)-3-morpholinopropan-2-ol]
< 4 | Cc1cnc2[nH]c3c(OC[C@@H](CN4CCOCC4)OP(=O)(O)O)ccc(-c4cccc(S(=O)(=O)C5CC5)c4)c3c2c1 [Compound 382, (R)-1-(5-(3-(cyclopropylsulfonyl)phenyl)-3-methyl-9H-pyrido[2,3-b]indol-8-yloxy)-3-morpholinopropan-2-yl dihydrogen phosphate]
4 to 5.5 | CCS(=O)(=O)c1cccc(-c2ccc(O[C@H](C)CCO)c3[nH]c4ncc(C)cc4c23)c1 [Compound 388, (R)-3-(5-(3-(ethylsulfonyl)phenyl)-3-methyl-9H-pyrido[2,3-b]indol-8-yloxy)butan-1-ol]
4 to 5.5 | CCS(=O)(=O)c1cccc(-c2ccc(O[C@@H](C)CCO)c3[nH]c4ncc(C)cc4c23)c1 [Compound 389, (S)-3-(5-(3-(ethylsulfonyl)phenyl)-3-methyl-9H-pyrido[2,3-b]indol-8-yloxy)butan-1-ol]
4 to 5.5 | CCS(=O)(=O)c1cccc(-c2ccc(O[C@@H](C)COP(=O)(O)O)c3[nH]c4ncc(C)cc4c23)c1 [Compound 391, (S)-2-(5-(3-(ethylsulfonyl)phenyl)-3-methyl-9H-pyrido[2,3-b]indol-8-yloxy)propyl dihydrogen phosphate]
< 4 | Cc1cnc2[nH]c3c(OC[C@H](CO)CN(C)C)ccc(-c4cccc(S(=O)(=O)C5CC5)c4)c3c2c1 [Compound 401, (S)-3-(5-(3-(cyclopropylsulfonyl)phenyl)-3-methyl-9H-pyrido[2,3-b]indol-8-yloxy)-2-((dimethylamino)methyl)propan-1-ol]
< 4 | Cc1cnc2[nH]c3c(OC[C@@H](CO)CN(C)C)ccc(-c4cccc(S(=O)(=O)C5CC5)c4)c3c2c1 [Compound 402, (R)-3-(5-(3-(cyclopropylsulfonyl)phenyl)-3-methyl-9H-pyrido[2,3-b]indol-8-yloxy)-2-((dimethylamino)methyl)propan-1-ol]
< 4 | Cc1cnc2[nH]c3c(O)ccc(-c4cccc(S(=O)(=O)C5CC5)c4)c3c2c1 [Compound 404, 5-(3-(cyclopropylsulfonyl)phenyl)-3-methyl-9H-pyrido[2,3-b]indol-8-ol]
< 4 | CCNCCCOc1ccc(-c2cccc(S(=O)(=O)C3CC3)c2)c2c1[nH]c1ncc(C)cc12 [Compound 407, 3-(5-(3-(cyclopropylsulfonyl)phenyl)-3-methyl-9H-pyrido[2,3-b]indol-8-yloxy)-N-ethylpropan-1-amine]
< 4 | Cc1cnc2[nH]c3c(OCCCNCCO)ccc(-c4cccc(S(=O)(=O)C5CC5)c4)c3c2c1 [Compound 408, 2-(3-(5-(3-(cyclopropylsulfonyl)phenyl)-3-methyl-9H-pyrido[2,3-b]indol-8-yloxy)propylamino)ethanol]
> 13 | CCS(=O)(=O)c1cccc(-c2ccc(OCCCn3cncn3)c3[nH]c4ncc(C)cc4c23)c1 [Compound 409, 8-(3-(1H-1,2,4-triazol-1-yl)propoxy)-5-(3-(ethylsulfonyl)phenyl)-3-methyl-9H-pyrido[2,3-b]indole]

More lines, now with the values behind:

Structure (SMILES) | IC50 [nM]
CN(CCO)CCOc1ccc(-c2cccc(S(=O)(=O)C3CC3)c2)c2c1[nH]c1ncc(Cl)cc12 [Compound 319, 2-((2-(3-chloro-5-(3-(cyclopropylsulfonyl)phenyl)-9H-pyrido[2,3-b]indol-8-yloxy)ethyl)(methyl)amino)ethanol] | < 4
Cc1cnc2[nH]c3c(OCCN4CCC(O)CC4)ccc(-c4cccc(S(=O)(=O)C5CC5)c4)c3c2c1 [Compound 322, 1-(2-(5-(3-(cyclopropylsulfonyl)phenyl)-3-methyl-9H-pyrido[2,3-b]indol-8-yloxy)ethyl)piperidin-4-ol] | < 4
CCN(CCO)CCOc1ccc(-c2cccc(S(=O)(=O)C3CC3)c2)c2c1[nH]c1ncc(Cl)cc12 [Compound 323, 2-((2-(3-chloro-5-(3-(cyclopropylsulfonyl)phenyl)-9H-pyrido[2,3-b]indol-8-yloxy)ethyl)(ethyl)amino)ethanol] | 5.6 to 8.5
O=S(=O)(c1cccc(-c2ccc(OCCN3CCC(O)CC3)c3[nH]c4ncc(Cl)cc4c23)c1)C1CC1 [Compound 325, 1-(2-(3-chloro-5-(3-(cyclopropylsulfonyl)phenyl)-9H-pyrido[2,3-b]indol-8-yloxy)ethyl)piperidin-4-ol] | < 4
CCS(=O)(=O)c1cccc(-c2ccc(OCCN3CCC(O)CC3)c3[nH]c4ncc(Cl)cc4c23)c1 [Compound 327, 1-(2-(3-chloro-5-(3-(ethylsulfonyl)phenyl)-9H-pyrido[2,3-b]indol-8-yloxy)ethyl)piperidin-4-ol] | 8.6 to 13
CCS(=O)(=O)c1cccc(-c2ccc(OCCn3ccnc3)c3[nH]c4ncc(C)cc4c23)c1 [Compound 333, 8-(2-(1H-imidazol-1-yl)ethoxy)-5-(3-(ethylsulfonyl)phenyl)-3-methyl-9H-pyrido[2,3-b]indole] | > 13
Cc1cnc2[nH]c3c(OCCCN(CCO)CC(F)(F)F)ccc(-c4cccc(S(=O)(=O)C5CC5)c4)c3c2c1 [Compound 339, 2-((3-(5-(3-(cyclopropylsulfonyl)phenyl)-3-methyl-9H-pyrido[2,3-b]indol-8-yloxy)propyl)(2,2,2-trifluoroethyl)amino)ethanol] | > 13
CCS(=O)(=O)c1cccc(-c2ccc(OCCCN(CCO)CC(F)(F)F)c3[nH]c4ncc(C)cc4c23)c1 [Compound 340, 2-((3-(5-(3-(ethylsulfonyl)phenyl)-3-methyl-9H-pyrido[2,3-b]indol-8-yloxy)propyl)(2,2,2-trifluoroethyl)amino)ethanol] | > 13
Cc1cnc2[nH]c3c(OCCCN(CCO)CC(F)F)ccc(-c4cccc(S(=O)(=O)C5CC5)c4)c3c2c1 [Compound 341, 2-((3-(5-(3-(cyclopropylsulfonyl)phenyl)-3-methyl-9H-pyrido[2,3-b]indol-8-yloxy)propyl)(2,2-difluoroethyl)amino)ethanol] | > 13
CCS(=O)(=O)c1cccc(-c2ccc(OCCCN(CCOP(=O)(O)O)CC(F)(F)F)c3[nH]c4ncc(C)cc4c23)c1 [Compound 343, 2-((3-(5-(3-(ethylsulfonyl)phenyl)-3-methyl-9H-pyrido[2,3-b]indol-8-yloxy)propyl)(2,2,2-trifluoroethyl)amino)ethyl dihydrogen phosphate] | < 4
Cc1cnc2[nH]c3c(OCC4CCN(CCO)CC4)ccc(-c4cccc(S(=O)(=O)C5CC5)c4)c3c2c1 [Compound 345, 2-(4-((5-(3-(cyclopropylsulfonyl)phenyl)-3-methyl-9H-pyrido[2,3-b]indol-8-yloxy)methyl)piperidin-1-yl)ethanol] | < 4
Cc1cnc2[nH]c3c(OCC4CCN(CCOP(=O)(O)O)CC4)ccc(-c4cccc(S(=O)(=O)C5CC5)c4)c3c2c1 [Compound 346, 2-(4-((5-(3-(cyclopropylsulfonyl)phenyl)-3-methyl-9H-pyrido[2,3-b]indol-8-yloxy)methyl)piperidin-1-yl)ethyl dihydrogen phosphate] | < 4
Cc1cnc2[nH]c3c(OCCCN4CCC(COP(=O)(O)O)CC4)ccc(-c4cccc(S(=O)(=O)C5CC5)c4)c3c2c1 [Compound 347, (1-(3-(5-(3-(cyclopropylsulfonyl)phenyl)-3-methyl-9H-pyrido[2,3-b]indol-8-yloxy)propyl)piperidin-4-yl)methyl dihydrogen phosphate] | < 4
CCS(=O)(=O)c1cccc(-c2ccc(OCCCOP(=O)(O)O)c3[nH]c4ncc(C)cc4c23)c1 [Compound 350, 3-(5-(3-(ethylsulfonyl)phenyl)-3-methyl-9H-pyrido[2,3-b]indol-8-yloxy)propyl dihydrogen phosphate] | < 4
